According to PubChem BioAssay (NCI):
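Interpolation was linear, between the two tested concentrations surrounding the appropriate level; five concentrations were tested over 48 hours in 96-well plates. Definition used: TGI = concentration required for complete inhibition of growth.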 *1 amine or outer side, *2 acyl side, *3 side chain or, on linkers, in order; H or OH if unused. Where a SMILES comes first, the peptide text is derived from it. Bridges are numbered along the chain shown (N, C = ends). [ ]: non-standard residue; d: D form. The star is where a group is joined. X38 = CC[C@H](C)[C@@H](N[*:1])[C@@H](O)CC(=O)[*:2]; NMeY = CN[C@@H](Cc1ccc(O)cc1)C(=O)O; dNMeL = CN[C@H](CC(C)C)C(=O)O; Hiv = CC(C)[C@H](O)C(=O)O; Pyruvoyl = CC(=O)C(=O)*

Experiments:
Assay in all cases: growth of human tumour cells (NCI), 48 h
SNB-19 CNS = test system: SNB-19 CNS
SF-539 CNS = test system: SF-539 CNS
NCI-H226 lung = test system: NCI-H226 lung
HOP-92 NSCLC = test system: HOP-92 NSCLC
HCT-15 colon = test system: HCT-15 colon
UACC-62 melanoma = test system: UACC-62 melanoma
PC-3 prostate = test system: PC-3 prostate
NCI-H522 lung = test system: NCI-H522 lung
TK-10 renal = test system: TK-10 renal
NCI-H460 lung = test system: NCI-H460 lung
RXF 393 renal = test system: RXF 393 renal
MDA-MB-231 breast = test system: MDA-MB-231 breast
786-0 renal = test system: 786-0 renal
SW-620 colon = test system: SW-620 colon
T-47D breast = test system: T-47D breast
BT-549 breast = test system: BT-549 breast
CCRF-CEM leukemia = test system: CCRF-CEM leukemia
A498 renal = test system: A498 renal
OVCAR-4 ovarian = test system: OVCAR-4 ovarian
SK-MEL-28 melanoma = test system: SK-MEL-28 melanoma

| Compound | TGI (SNB-19 CNS) [µM] | TGI (SF-539 CNS) [µM] | TGI (NCI-H226 lung) [µM] | TGI (HOP-92 NSCLC) [µM] | TGI (HCT-15 colon) [µM] | TGI (UACC-62 melanoma) [µM] | TGI (PC-3 prostate) [µM] | TGI (NCI-H522 lung) [µM] | TGI (TK-10 renal) [µM] | TGI (NCI-H460 lung) [µM] | TGI (RXF 393 renal) [µM] | TGI (MDA-MB-231 breast) [µM] | TGI (786-0 renal) [µM] | TGI (SW-620 colon) [µM] | TGI (T-47D breast) [µM] | TGI (BT-549 breast) [µM] | TGI (CCRF-CEM leukemia) [µM] | TGI (A498 renal) [µM] | TGI (OVCAR-4 ovarian) [µM] | TGI (SK-MEL-28 melanoma) [µM] |
| --- | --- | --- | --- | --- | --- | --- | --- | --- | --- | --- | --- | --- | --- | --- | --- | --- | --- | --- | --- | --- |
| CCCCc1ccc(Nc2nc(Cl)c3c(ncn3COCCOC(C)=O)n2)cc1 | 46.1 | 53.4 | 40.6 | 43.6 | 30.7 | 31.1 | 37.4 | 33.4 | 41.8 | 34.4 | 28.4 | 33.4 | 36.9 | 41.4 | 34.6 | 31.4 | 60.7 | 38.8 | 66.6 |  |
| CC1=NC(=O)C(C)(c2ccccc2)N1CCc1ccccc1 (stereo unspecified) | > 100 | > 100 | > 100 | > 100 | > 100 | > 100 | > 100 | > 100 | > 100 |  | > 100 | > 100 | > 100 | > 100 | > 100 | > 100 | > 100 | > 100 | > 100 |  |
| Cc1ccc(NCC2CC/C(=C\c3ccc(Cl)cc3)C2=O)cc1 (stereo unspecified) | > 55.7 | > 60.7 | > 100 | 30.6 | 9.41 | 58.6 | 37.5 | 15.8 | 40.6 | > 62.4 | 31 | 28.4 | 11.3 | 16.5 | 46.5 | 36.5 | 19.3 | > 73.3 | > 80.7 | 36.7 |
| Cc1c2ccncc2cc2c1sc1ccncc12 | 30.3 | 17.6 | 5.18 | 46.9 | 14.4 | 8.41 | 10.5 | 9.09 | 36 | 4.77 | 12.4 | 21.9 | 18 | 16.7 | 7.44 | 17.6 | 5.32 | 13.8 | 25.2 | 14.1 |
| C[C@H]1[C@H](C)N(Cc2ccccc2)P(=O)(C(O)/C=C/c2ccccc2)N1Cc1ccccc1 (stereo partly specified) | > 25 | 10.2 | 16.9 | 19.7 | > 25 | 8.13 | 13 | > 25 | 24.1 | 10.2 | 15.6 | 15.1 | 10.9 | > 25 | 22.9 | > 25 |  | 10.3 | 15 | > 25 |
| CC1C2CC(CC(=O)N2)C1(C)C (stereo unspecified) | > 100 | > 100 | > 100 | > 100 |  | > 100 | > 100 | > 100 | > 100 | > 100 | > 100 | > 100 | > 100 | > 100 | > 100 | > 100 | > 100 | > 100 | > 100 | > 100 |
| Oc1ccccc1/C=N/Nc1nnc2c3ccccc3c3ccccc3c2n1 | > 100 | > 100 | > 100 | > 100 | > 100 | > 100 | > 100 | 54.1 | > 100 | > 100 | > 100 | > 100 | > 100 | > 100 | > 100 | > 100 | > 100 | > 100 | > 100 | > 100 |
| COc1ccc(/C=C(\Cl)c2ccc(OC)c(OC)c2)cc1OC | > 100 | > 100 | > 100 | > 100 | > 100 | > 100 | > 100 | > 100 | > 100 | > 100 | > 100 | > 100 | > 100 | > 100 | > 100 | > 100 | > 100 | > 100 | > 100 | > 100 |
| O=C(O)C1C(C(=O)O)C2C(=O)C=CC1N2Cc1ccccc1 (stereo unspecified) | 18.2 | 7.56 | 35.8 | 24.6 | 10.3 | 21.3 | 18.8 | 3.78 | 11.4 | 5.1 | 7.51 | 14.4 | 11.7 | 11.6 | 15.2 | 17.4 | 2.75 | 42.6 | 16.3 | 15.5 |
| C=C(c1ccccc1)C1ON(C)CCc2cc(OC)c(OC)cc21 (stereo unspecified) | > 100 | > 100 | > 100 | > 100 | > 100 | > 100 | > 100 | > 100 | > 100 | > 100 | > 100 | > 100 | > 100 | > 100 | > 100 | > 100 | > 100 | > 100 |  | > 100 |
| COc1ccc(Br)c2c1CC(C(=O)O)CC2 (stereo unspecified) | > 100 | > 100 | > 100 | > 100 | > 100 | > 100 | > 100 | > 100 | > 100 | > 100 | > 100 | > 100 | > 100 | > 100 | > 100 | > 100 | > 100 | > 100 | > 100 | > 100 |
| CCOC(=O)c1nc2ccc(C(F)(F)F)cc2nc1NCc1ccc(Cl)c(Cl)c1 | 83.2 | > 100 | > 100 | 40.4 | > 100 | > 100 | 75.9 | 33.5 | > 100 | > 100 | 81.5 | > 100 | 46.7 | > 100 | > 100 | > 100 | > 100 | 92.1 | 48.6 |  |
| NC(=O)c1cc2ccccc2oc1=Nc1ccccc1 | > 100 | > 100 | > 100 | > 100 | > 100 | > 100 | > 100 |  |  | > 100 | > 100 | > 100 | > 100 | > 100 | > 100 | > 100 | > 100 | > 100 | > 100 | > 100 |
| Clc1cccc(Cl)c1C=NC12CC3CC(CC(C3)C1)C2 | > 10 | > 10 | > 10 | > 10 | > 10 | > 10 | > 10 | > 10 | > 10 | > 10 | > 10 | > 10 | > 10 | > 10 | > 10 | > 10 | > 10 | > 10 | > 10 | > 10 |
| CC[C@H](C)[C@H]1NC(=O)[C@@H](NC(=O)[C@@H](CC(C)C)N(C)C(=O)[C@@H]2CCCN2C(=O)C(C)=O)[C@@H](C)OC(=O)[C@H](Cc2ccc(OC)cc2)N(C)C(=O)[C@@H]2CCCN2C(=O)[C@H](CC(C)C)NC(=O)[C@H](C(C)C)OC(=O)C[C@@H]1O (Pyruvoyl-P[dNMeL]T[X38][Hiv]LP[NMeY](Me); ester 3-C) | 0.721 | 0.0101 | 0.0331 | 0.374 | 3.29 | 0.0299 | 0.261 | 0.179 | 0.0643 | 0.0321 | 0.0122 | 0.112 | 0.0397 |  | 0.0113 | 0.0181 |  | 0.0904 | 0.351 | 0.543 |
| CSc1nc2ccccc2c(=O)n1/N=C1\C(=O)N(CN2CCCCC2)c2ccc(Cl)cc21 | > 100 | > 100 | > 100 | > 100 | > 100 | > 100 | > 100 | 37.3 | > 100 | > 100 | 33.4 | > 100 | 69 | 52.1 | 54.8 | 80.7 | > 100 | 96.6 | > 100 | > 100 |
| O=S1(=O)c2cnccc2NC(=NCc2cccc3ccccc23)N1c1ccccc1 | > 100 | > 100 | > 100 | > 100 | > 100 | > 100 | > 81.8 | > 100 | > 100 | > 100 | > 90.4 | > 100 | 74.7 | > 100 | > 100 | > 100 | > 100 | > 100 | > 100 | > 100 |
| C[C@@]12C=CC3C/C(=N\C(N)=S)C=C(CCCC4OCCO4)[C@]3(CC1)C2 (stereo partly specified) | > 100 | 31.7 | 55 | > 100 | 53.6 | 30.4 | 50.7 | 22.9 | 49.4 | 32 | 31.7 | 43.1 | 57.1 | 48.9 | 57.9 | 51.9 |  | 33.1 | 99.2 | 35 |
| CC1(C)C(=O)N(O)C(C)(C)N1O | > 10 | > 10 | > 10 | > 10 | > 10 | > 10 | > 10 | > 10 | > 10 | > 10 | > 10 | > 10 | > 10 | > 10 | > 10 | > 10 | > 10 | > 10 | > 10 | > 10 |
| CC(C)=CCOc1cc(NC(=S)c2ccoc2C)ccc1Cl | > 100 | > 100 | > 100 | > 100 | > 100 | > 100 | > 100 | > 100 | > 100 | > 100 | > 100 | > 100 | > 100 | > 100 | > 100 | > 100 | > 100 | > 100 | > 100 | > 100 |
| CCOC(=O)CCC(NC(=O)Cc1ccc(Nc2nc3ccccc3nc2-c2ccccc2)cc1)C(=O)OCC (stereo unspecified) | > 100 | > 100 | > 100 | 45.8 | > 100 | > 100 | > 100 | > 100 | 58.5 | > 100 | 44.8 | 53.3 | > 100 | > 100 | > 100 | > 100 | > 100 | > 100 | > 100 | > 100 |
| NC(=O)C(Nc1c(Cl)cccc1Cl)c1cc2cc(Br)ccc2nc1Cl (stereo unspecified) | > 100 | > 100 | > 100 | > 100 | > 100 | > 100 | > 100 | > 100 | 96.3 | > 100 | > 100 | > 100 | > 100 | > 100 | > 100 | > 100 | > 100 | > 100 | > 100 | > 100 |
| CCOC(=O)c1cc(Sc2ccc(N)c(C(=O)OCC)c2)ccc1N | > 100 | > 100 | 44.7 | > 100 | > 100 | > 100 | > 100 | > 100 |  | > 100 | > 100 | > 100 | > 100 | > 100 | > 100 | > 100 | > 100 | 72.1 | > 100 | > 100 |
| O=C1CC(=O)NC(=NN2C(=O)CSC2c2ccc(Cl)c(Cl)c2)N1 (stereo unspecified) |  | > 100 | > 100 | > 100 | > 100 | > 100 | > 100 | > 100 | > 100 | > 100 | > 100 | > 100 | > 100 | > 100 | > 100 | > 100 | 49.3 | > 100 | > 100 | > 100 |
